According to the supplement of paper PMC10307832:

Legend:
Test in all cases: relative viability (nuclei count vs DMSO), 5 days (fraction); higher = more cells survive
[1] = compound: C1CCC(CC1)N(CCNCCC2=C3C(=C(C=C2)O)NC(=O)CO3)C(=O)CCNCCC4=CC(=C(C=C4)Cl)Cl [AZ505] + Nc1nc2[nH]cc(CCc3ccc(C(=O)N[C@@H](CCC(=O)O)C(=O)O)cc3)c2c(=O)[nH]1 [Pemetrexed] (partner 0.2 µM)
In short: (§1)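 After 5 days of treatment, lung cancer cells in 1536-well plates were fixed and stained in a single step (final 0.05% Triton X-100, 1% formaldehyde, 1 ug/ml Hoechst) and their nuclei counted on 4× images. Treatment had been applied by pin tool the day after seeding as one drug alone or as a fixed anchor-drug dose with five library-drug doses (not always all listed) in √10 steps. Relative viability is the nuclei count of treated wells divided by that of vehicle wells, and values are medians of duplicate plates.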

[2] = compound: Cn1c(=O)n(-c2ccc(C(C)(C)C#N)cc2)c2c3cc(-c4cnc5ccccc5c4)ccc3ncc21 [Dactolisib] + N=C(N)NC(=N)NCCc1ccccc1 [Phenformin] (partner 250 µM)
In short: as §1

[3] = compound: C1CCC(CC1)N(CCNCCC2=C3C(=C(C=C2)O)NC(=O)CO3)C(=O)CCNCCC4=CC(=C(C=C4)Cl)Cl [AZ505] + Cc1cc(Nc2cc(N3CCN(C)CC3)nc(Sc3ccc(NC(=O)C4CC4)cc3)n2)n[nH]1 [Tozasertib] (partner 0.1 µM)
In short: as §1

[4] = compound: C1CCC(CC1)N(CCNCCC2=C3C(=C(C=C2)O)NC(=O)CO3)C(=O)CCNCCC4=CC(=C(C=C4)Cl)Cl [AZ505] + NC(=O)Nc1cc(-c2cccc(F)c2)sc1C(=O)N[C@H]1CCCNC1 [AZD7762] (partner 0.2 µM)
In short: as §1

Cell Line | relative viability ([1]; first compound 0.08 µM) | relative viability ([1]; first compound 0.253 µM) | relative viability ([1]; first compound 0.8 µM) | relative viability ([1]; first compound 2.53 µM) | relative viability ([1]; first compound 8 µM) | relative viability ([2]; first compound 0.002 µM) | relative viability ([2]; first compound 0.006325 µM) | relative viability ([2]; first compound 0.02 µM) | relative viability ([2]; first compound 0.06325 µM) | relative viability ([2]; first compound 0.2 µM) | relative viability ([3]; first compound 0.08 µM) | relative viability ([3]; first compound 0.253 µM) | relative viability ([3]; first compound 0.8 µM) | relative viability ([3]; first compound 2.53 µM) | relative viability ([3]; first compound 8 µM) | relative viability ([4]; first compound 0.253 µM) | relative viability ([4]; first compound 0.8 µM) | relative viability ([4]; first compound 2.53 µM) | relative viability ([4]; first compound 8 µM) | relative viability ([4]; first compound 0.08 µM)
NCI-H1563 | 0.703 | 0.782 | 0.875 | 0.771 | 0.769 | 0.674 | 0.622 | 0.626 | 0.61 | 0.54 | – | – | – | – | – | – | – | – | – | –
NCI-H1623 | – | – | – | – | – | 0.618 | 0.628 | 0.561 | 0.585 | 0.438 | 0.454 | 0.457 | 0.425 | 0.445 | 0.443 | – | – | – | – | –
NCI-H1648 | – | 0.743 | 0.679 | 0.79 | 0.953 | – | – | – | – | – | 0.469 | 0.581 | 0.408 | 0.562 | 0.703 | 0.755 | 0.921 | 0.818 | 0.825 | –
NCI-H1650 | 0.352 | 0.396 | 0.351 | 0.402 | 0.446 | 0.355 | 0.41 | 0.454 | 0.267 | 0.232 | 0.313 | 0.448 | 0.496 | 0.369 | 0.321 | – | – | – | – | –
NCI-H1703 | – | – | – | – | – | – | – | – | – | – | – | – | – | – | – | – | 0.12 | 0.114 | 0.134 | 0.106
NCI-H1792 | 0.702 | 0.509 | 0.609 | 1.01 | 0.901 | 0.249 | 0.172 | 0.262 | 0.101 | 0.0814 | – | – | – | – | – | 0.247 | 0.544 | 0.642 | 0.833 | 0.627
NCI-H2009 | 1.05 | 1.01 | 0.984 | 1.06 | 1.01 | 0.553 | 0.467 | 0.474 | 0.308 | 0.198 | 0.714 | 0.738 | 0.805 | 0.706 | 0.64 | – | – | – | – | –
NCI-H2023 | 0.219 | 0.221 | 0.244 | 0.221 | 0.244 | 0.43 | 0.361 | 0.309 | 0.14 | 0.122 | 0.293 | 0.371 | 0.395 | 0.298 | 0.322 | – | – | – | – | –
NCI-H2228 | 0.334 | 0.353 | 0.366 | 0.356 | 0.283 | 0.302 | 0.272 | 0.179 | 0.192 | 0.164 | 0.23 | 0.279 | 0.164 | 0.206 | 0.236 | – | – | – | – | –
SK-LU-1 | 0.671 | 0.72 | 0.684 | 0.799 | 0.757 | 0.273 | 0.491 | 0.414 | 0.259 | 0.185 | 0.312 | 0.302 | 0.242 | 0.345 | 0.235 | – | – | – | – | –
SK-MES-1 | 0.81 | 0.909 | 0.875 | 0.949 | 0.882 | 0.667 | 0.662 | 0.627 | 0.388 | 0.212 | 0.853 | 0.863 | 0.898 | 0.785 | 0.884 | – | – | – | – | –
SW 1573 | 0.761 | 0.851 | 0.928 | 0.869 | 0.876 | 0.382 | 0.238 | 0.31 | 0.139 | 0.175 | 0.174 | 0.169 | 0.175 | 0.171 | 0.144 | – | – | – | – | –
